In ChEMBL document CHEMBL1141825, “Chemistry of verongida sponges. 9.1 secondary metabolite composition of the caribbean sponge aplysina cauliformis” (J Nat Prod, 1999):
Converted amounts (≈) assume the structure as drawn.

Tested on: HeLa
Experiment: Antiproliferative activity against human HeLa cells assessed as [3H]thymidine incorporation after 72 hrs by miniaturized, improved, nucleic acid precursor incorporation assay
Format: functional, cell-based

COC(=O)NCC(=O)CCNC(=O)C1=NO[C@]2(C=C(Br)C(OC)=C(Br)[C@@H]2O)C1
IC50: 50 mg/L (≈ 95.2 µM)
